Measurements: DBAASP
≈ marks a conversion by molar mass, not a printed value.

Assays:
Test in all cases: ≥ marks a high value that may be exact or a test limit, other limits are often not marked, values filed in µg/mL are converted to µM
[1] = tested on: Escherichia coli K12 MG1655
Streptococcus mutans = tested on: Streptococcus mutans
[2] = tested on: Pseudomonas aeruginosa ATCC 27853
[3] = tested on: Escherichia coli ATCC 25922
[4] = tested on: Escherichia coli DH5alpha
[5] = tested on: Staphylococcus aureus ATCC 25923
[6] = tested on: Candida albicans ATCC 2002
[7] = tested on: Pseudomonas aeruginosa CMCCB 10104
Pseudomonas aeruginosa = tested on: Pseudomonas aeruginosa
Shigella dysenteriae = tested on: Shigella dysenteriae
[8] = tested on: Staphylococcus aureus ATCC 2592
Bacillus cereus = tested on: Bacillus cereus

| Compound | MIC (Streptococcus mutans) | MIC [3] | MIC [5] | MIC [6] | MIC [7] | further results |
| --- | --- | --- | --- | --- | --- | --- |
| CC[C@H](C)[C@H](NC(=O)[C@H](C)N)C(=O)N[C@@H](C)C(=O)N[C@@H](CCCN=C(N)N)C(=O)N[C@H](C(=O)N[C@@H](CCCN=C(N)N)C(=O)N[C@@H](CCCN=C(N)N)C(=O)N[C@@H](CCCN=C(N)N)C(=O)N[C@@H](CC(C)C)C(=O)N[C@@H](CC(C)C)C(=O)N[C@@H](CC(C)C)C(=O)N[C@@H](Cc1ccc(O)cc1)C(=O)N[C@@H](CC(C)C)C(=O)N[C@@H](CC(C)C)C(=O)N[C@@H](C)C(=O)O)[C@@H](C)O [AIARTRRRLLLYLLA] |  |  |  |  |  | MIC [1]: ≥ 71.1 µM |
| C[C@H](N)C(=O)N[C@@H](CCC(N)=O)C(=O)N[C@@H](C)C(=O)N[C@@H](C)C(=O)N[C@@H](Cc1cnc[nH]1)C(=O)N[C@@H](CCC(N)=O)C(=O)N[C@@H](C)C(=O)N[C@@H](C)C(=O)N[C@@H](Cc1cnc[nH]1)C(=O)N[C@@H](C)C(=O)N[C@@H](C)C(=O)N[C@@H](Cc1cnc[nH]1)C(=O)N[C@@H](CCC(N)=O)C(=O)N[C@@H](Cc1ccccc1)C(N)=O [AQAAHQAAHAAHQF] | ≥ 85.7 µM |  |  |  |  |  |
| CC[C@H](C)[C@H](NC(=O)[C@H](Cc1cnc[nH]1)NC(=O)[C@H](C)NC(=O)[C@H](CCSC)NC(=O)[C@H](CC(N)=O)NC(=O)[C@H](CCCCN)NC(=O)[C@H](CCCCN)NC(=O)[C@@H](NC(=O)[C@@H](NC(=O)[C@H](CCCCN)NC(=O)[C@H](C)NC(=O)[C@H](Cc1ccccc1)NC(=O)[C@H](CC(C)C)NC(=O)[C@H](CCCCN)NC(=O)[C@@H]1CCCN1C(=O)[C@H](CC(C)C)NC(=O)[C@@H](N)Cc1ccccc1)[C@@H](C)CC)[C@@H](C)O)C(=O)N[C@@H](CCCN=C(N)N)C(=O)O [FLPKLFAKITKKNMAHIR] |  | 1.48 µM (≈ 3.2 µg/mL) | 0.742 µM (≈ 1.6 µg/mL) | 0.742 µM (≈ 1.6 µg/mL) | 1.48 µM (≈ 3.2 µg/mL) | MIC [2]: 50 µM (≈ 108 µg/mL); MIC [4]: ≥ 50 µM |
| CC[C@H](C)[C@H](NC(=O)[C@@H](NC(=O)[C@H](CC(=O)O)NC(=O)[C@H](CC(C)C)NC(=O)[C@H](CC(C)C)NC(=O)CN)[C@@H](C)O)C(=O)N[C@@H](CCCCN)C(=O)N[C@@H](CC(N)=O)C(=O)N[C@@H](CCSC)C(=O)N[C@@H](C)C(=O)N[C@@H](CC(C)C)C(=O)N[C@@H](CC(N)=O)C(=O)N[C@@H](C)C(=O)N[C@@H](C)C(=O)N[C@@H](CCCCN)C(=O)N[C@@H](CO)C(=O)N[C@@H](C)C(=O)NCC(=O)N[C@H](C(=O)N[C@@H](CO)C(=O)N[C@H](C(=O)N[C@@H](CC(C)C)C(=O)N[C@@H](CC(N)=O)C(=O)N[C@@H](CO)C(=O)N[C@@H](CC(C)C)C(=O)N[C@@H](CO)C(=O)N[C@H]1CSSC[C@@H](C(=O)O)NC(=O)[C@H]([C@@H](C)O)NC(=O)[C@H](CCCCN)NC(=O)[C@H](CO)NC(=O)[C@H](CC(=O)O)NC(=O)[C@H](CCCCN)NC1=O)C(C)C)C(C)C [GLLDTIKNMALNAAKSAGVSVLNSLSCKDSKTC] |  | 1.73 µM (≈ 5.8 µg/mL) | 1.73 µM (≈ 5.8 µg/mL) | 3.46 µM (≈ 11.6 µg/mL) | 3.46 µM (≈ 11.6 µg/mL) |  |
| CC[C@H](C)[C@H](NC(=O)[C@H](CC(C)C)NC(=O)[C@H](CCC(N)=O)NC(=O)[C@@H](NC(=O)[C@H](C)NC(=O)CNC(=O)[C@H](CCCCN)NC(=O)[C@@H](NC(=O)[C@H](CC(C)C)NC(=O)[C@@H](NC(=O)[C@H](Cc1ccccc1)NC(=O)[C@@H](NC(=O)CN)C(C)C)[C@@H](C)O)[C@@H](C)CC)[C@@H](C)O)C(=O)NCC(=O)N[C@@H](CCCCN)C(=O)N[C@H](C(=O)N[C@@H](CC(C)C)C(=O)NCC(=O)N[C@@H](CCCCN)C(=O)N[C@@H](CCC(=O)O)C(=O)N[C@@H](CC(C)C)C(=O)NCC(=O)N[C@@H](CCCCN)C(=O)N[C@H](C(=O)NCC(=O)N[C@@H](CC(C)C)C(=O)N[C@@H](CCC(=O)O)C(=O)N[C@@H](CC(C)C)C(=O)N[C@@H](CCSC)C(=O)N[C@@H](C)C(=O)N[C@H]1CSSC[C@@H](C(=O)O)NC(=O)[C@H](CCC(N)=O)NC(=O)[C@H](CC(N)=O)NC(=O)[C@H]([C@@H](C)O)NC(=O)[C@H]([C@@H](C)CC)NC(=O)[C@H](CCCCN)NC1=O)[C@@H](C)O)[C@@H](C)O [GVFTLIKGATQLIGKTLGKELGKTGLELMACKITNQC] |  | 2.78 µM (≈ 10.8 µg/mL) | 5.57 µM (≈ 21.6 µg/mL) | 2.78 µM (≈ 10.8 µg/mL) | 5.57 µM (≈ 21.6 µg/mL) |  |
| CSCC[C@@H]1NC(=O)[C@H](C(C)C)NC(=O)[C@H](C)NC(=O)[C@H](CCCN=C(N)N)NC(=O)[C@H](Cc2ccccc2)NC(=O)CNC(=O)CNC(=O)[C@H](CCCCN)NC(=O)[C@@H](NC(=O)[C@H](CCCN=C(N)N)NC(=O)[C@@H]2CCCN2C(=O)[C@H](CCSC)NC(=O)[C@H](CO)NC(=O)[C@H](Cc2ccc(O)cc2)NC(=O)[C@H](C)NC(=O)[C@@H](N)CCCCN)CSSC[C@@H](C(=O)N[C@@H](Cc2c[nH]c3ccccc23)C(=O)N[C@@H](CC(C)C)C(N)=O)NC1=O [KAYSMPRCKGGFRAVMCWL] |  | 5.67 µM (≈ 12.5 µg/mL) |  | 22.7 µM (≈ 49.9 µg/mL) |  | MIC (Pseudomonas aeruginosa): 22.7 µM (≈ 49.9 µg/mL); MIC (Shigella dysenteriae): 5.67 µM (≈ 12.5 µg/mL); MIC [8]: 11.3 µM (≈ 25 µg/mL); MIC (Bacillus cereus): 22.7 µM (≈ 49.9 µg/mL) |
| CSCC[C@H](NC(=O)[C@H](CCC(=O)O)NC(=O)[C@H](C)NC(=O)[C@H](C)NC(=O)[C@@H](NC(=O)CNC(=O)[C@H](C)NC(=O)[C@@H](NC(=O)[C@H](Cc1ccccc1)NC(=O)[C@H](C)NC(=O)[C@@H](N)CC(C)C)C(C)C)C(C)C)C(=O)N[C@@H](CCSC)C(=O)N[C@@H](CCC(N)=O)C(=O)N[C@@H](Cc1cnc[nH]1)C(=O)N[C@H](C(=O)N[C@@H](Cc1ccc(O)cc1)C(=O)N[C@H]1CSSC[C@@H](C(=O)O)NC(=O)[C@H](CCCCN)NC(=O)[C@H](CCCCN)NC(=O)[C@H](CO)NC(=O)[C@H](C)NC(=O)[C@H](C)NC1=O)C(C)C [LAFVAGVAAEMMQHVYCAASKKC] |  | 2.55 µM (≈ 6.2 µg/mL) | 5.11 µM (≈ 12.4 µg/mL) | 5.11 µM (≈ 12.4 µg/mL) | 5.11 µM (≈ 12.4 µg/mL) |  |
| CC(C)C[C@H](NC(=O)[C@H](C)NC(=O)[C@@H](N)CC(N)=O)C(=O)N[C@@H](CO)C(=O)N[C@@H](CO)C(=O)N1CCC[C@H]1C(=O)N[C@@H](CCCN=C(N)N)C(=O)N[C@@H](CC(N)=O)C(=O)N[C@@H](CCCCN)C(=O)N[C@H]1CSSC[C@@H](C(=O)N[C@@H](Cc2ccccc2)C(=O)NCC(=O)O)NC(=O)[C@H](CO)NC(=O)[C@H](CO)NC(=O)[C@H](C)NC(=O)[C@H](CCCN=C(N)N)NC(=O)[C@H](CC(=O)O)NC1=O [NALSSPRNKCDRASSCFG] |  | 26.1 µM (≈ 49.9 µg/mL) |  | 3.27 µM (≈ 6.24 µg/mL) |  | MIC (Pseudomonas aeruginosa): 3.27 µM (≈ 6.25 µg/mL); MIC (Shigella dysenteriae): 1.62 µM (≈ 3.1 µg/mL); MIC [8]: 3.27 µM (≈ 6.24 µg/mL); MIC (Bacillus cereus): 6.53 µM (≈ 12.5 µg/mL) |
| CC(C)C[C@H](NC(=O)[C@H](Cc1cnc[nH]1)NC(=O)[C@H](CCCCN)NC(=O)[C@H](Cc1ccccc1)NC(=O)[C@H](CCCN=C(N)N)NC(=O)[C@H](CCCCN)NC(=O)[C@H](CC(C)C)NC(=O)[C@H](CC(C)C)NC(=O)[C@@H](N)CCCN=C(N)N)C(=O)N[C@@H](Cc1ccccc1)C(=O)N[C@@H](CCCCN)C(=O)O [RLLKRFKHLFK] | ≥ 42.1 µM |  |  |  |  |  |
| NC(=O)[C@H](Cc1ccccc1)NC(=O)[C@H](Cc1c[nH]c2ccccc12)NC(=O)[C@H](Cc1c[nH]c2ccccc12)NC(=O)[C@H](Cc1c[nH]c2ccccc12)NC(=O)[C@H](CCCN=C(N)N)NC(=O)[C@H](CCCN=C(N)N)NC(=O)[C@H](CCCN=C(N)N)NC(=O)[C@@H]1CCCN1C(=O)[C@H](CO)NC(=O)CNC(=O)[C@H](CO)NC(=O)[C@@H]1CCCN1C(=O)[C@H](Cc1ccccc1)NC(=O)[C@H](Cc1c[nH]c2ccccc12)NC(=O)[C@H](Cc1c[nH]c2ccccc12)NC(=O)[C@H](Cc1c[nH]c2ccccc12)NC(=O)[C@H](CCCN=C(N)N)NC(=O)[C@H](CCCN=C(N)N)NC(=O)[C@@H](N)CCCN=C(N)N [RRRWWWFPSGSPRRRWWWF] | 11.5 µM (≈ 32 µg/mL) |  |  |  |  |  |
| NC(=O)[C@H](Cc1ccccc1)NC(=O)[C@H](Cc1c[nH]c2ccccc12)NC(=O)[C@H](Cc1c[nH]c2ccccc12)NC(=O)[C@H](Cc1c[nH]c2ccccc12)NC(=O)[C@H](CCCN=C(N)N)NC(=O)[C@H](CCCN=C(N)N)NC(=O)[C@H](CCCN=C(N)N)NC(=O)[C@H](Cc1ccccc1)NC(=O)[C@H](Cc1c[nH]c2ccccc12)NC(=O)[C@H](Cc1c[nH]c2ccccc12)NC(=O)[C@H](Cc1c[nH]c2ccccc12)NC(=O)[C@H](CCCN=C(N)N)NC(=O)[C@H](CCCN=C(N)N)NC(=O)[C@@H](N)CCCN=C(N)N [RRRWWWFRRRWWWF] | 6.76 µM (≈ 16 µg/mL) |  |  |  |  |  |
| NC(N)=NCCC[C@H](NC(=O)[C@H](Cc1c[nH]c2ccccc12)NC(=O)[C@H](CCCN=C(N)N)NC(=O)[C@H](Cc1c[nH]c2ccccc12)NC(=O)[C@H](CCCN=C(N)N)NC(=O)[C@H](Cc1c[nH]c2ccccc12)NC(=O)[C@@H](N)CCCN=C(N)N)C(=O)O [RWRWRWR] | 26.6 µM (≈ 32 µg/mL) |  |  |  |  |  |
| CC[C@H](C)[C@H](NC(=O)[C@H](C)NC(=O)[C@H](CC(C)C)NC(=O)[C@H](CC(N)=O)NC(=O)[C@H](CCCCN)NC(=O)[C@H](CC(C)C)NC(=O)[C@@H](NC(=O)[C@H](CC(=O)O)NC(=O)[C@H](CC(C)C)NC(=O)[C@H](Cc1ccccc1)NC(=O)[C@@H](N)CO)[C@@H](C)O)C(=O)N[C@@H](CO)C(=O)N[C@@H](C)C(=O)N[C@@H](C)C(=O)N[C@@H](CCCCN)C(=O)NCC(=O)N[C@@H](C)C(=O)NCC(=O)N[C@@H](CCC(N)=O)C(=O)N[C@@H](CO)C(=O)N[C@H](C(=O)N[C@@H](CC(C)C)C(=O)N[C@@H](CO)C(=O)N[C@H](C(=O)N[C@@H](CC(C)C)C(=O)N[C@@H](CO)C(=O)N[C@H]1CSSC[C@@H](C(=O)O)NC(=O)[C@H]([C@@H](C)O)NC(=O)[C@H](CCC(=O)O)NC(=O)[C@H](CO)NC(=O)[C@H](CC(C)C)NC(=O)[C@H](CCCCN)NC1=O)[C@@H](C)O)C(C)C [SFLDTLKNLAISAAKGAGQSVLSTLSCKLSETC] |  | 3.93 µM (≈ 13.2 µg/mL) | 1.97 µM (≈ 6.6 µg/mL) | 1.97 µM (≈ 6.6 µg/mL) | 1.97 µM (≈ 6.6 µg/mL) |  |
